Experimental data from article PMC6412019, “Discovery of NV-5138, the first selective Brain mTORC1 activator” (Scientific Reports, 2019).

Experiments:
HeLa cells = assay: 14C-leucine protein incorporation assay in HeLa cells; format: cell-based, human; details: for effect on incorporation of 14C-leucine into precipitated proteins: 30 min labeling, CHX 10 ug/ml
Experimental: Since NV-5138 is an amino acid, we performed two different experiments to rule out any potential liabilities that could arise from the incorporation of NV-5138 into proteins. We first determined whether NV-5138 substitutes for any branched-chain amino acid or methionine into newly synthesized proteins using liquid chromatography followed by tandem mass spectroscopy (LC-MS/MS). NV-5138 (100 µM) or vehicle was incubated with serum and leucine-starved 293T cells for 6 hours followed by proteomic analysis by mass spectrometry.
After incubation, cells were harvested and lysed in Tris/HCl 10 mM pH 7.4 plus 1% NP40. Lysate were mixed with water and 20% trichloroacetic acid (1:1:2) and incubated on ice for 2 h to precipitate the protein. Proteins were collected by centrifugation, solubilized in NaOH, placed in scintillation fluid and read on a Wallac Microbeta Trilux 2450 with a 2-min count. Scintillation values were normalized as the percentage of the counts from the DMSO-treated wells.

mTORC1 = mTORC1 activation in rat peripheral tissues after oral dosing (phosphorylated S6 S240/244 immunoblot); format: in vivo; details: 1 h after single oral dose; NV-5138 160 mg/kg, leucine 500 mg/kg
Experimental: After compound administration, animals were sacrificed by decapitation using a guillotine, immediately Specific regions of the brain were quickly microdissected, tissues collected, and flash frozen in liquid nitrogen. Peripheral tissues and all brain were homogenized using MP homogenizer in Lysis Buffer (Cell lysis buffer: 1% Triton X-100, 50 mM HEPES pH 7.4, 100 mM NaCl, 2 mM EDTA, 10 mM Beta-glycerophosphate, 10 mM Sodium pyrophosphate, and 1 protease inhibitor) at 4 °C. Synaptic proteins and mTORC1 analyses in each brain region were conducted on crude synaptoneurosome preparations as previously described. Equal amounts of total protein from each sample were denatured and, resolved by SDS-PAGE. Membranes were imaged using the LI-COR imaging system. Proteins levels are normalized to tubulin or GAPDH levels and further normalized to vehicle treated rats for each tissue. Antibodies used are listed in Supplementary Information.

Sestrin2 = molecular target: T1, Sestrin2 (Homo sapiens, UniProt P58004); assay: Thermal shift assay of purified Sestrin2; format: binding; design: Full-length, codon-optimized human Sestrin2 was cloned into a pMAL6H -C5XT bacterial expression vector; His6-MBP (TEV-cleavable) (N, cleaved yes); made in house; host or cells: Escherichia coli LOBSTR (DE3); details: average +/- SD, n = 3, read-out: Average Tm shift; for ΔTm at 1 µM: compound concentration 1 µM; for ΔTm at 10 µM: compound concentration 10 µM; for ΔTm at 100 µM: compound concentration 100 µM
T1 sequence (P58004 1-480): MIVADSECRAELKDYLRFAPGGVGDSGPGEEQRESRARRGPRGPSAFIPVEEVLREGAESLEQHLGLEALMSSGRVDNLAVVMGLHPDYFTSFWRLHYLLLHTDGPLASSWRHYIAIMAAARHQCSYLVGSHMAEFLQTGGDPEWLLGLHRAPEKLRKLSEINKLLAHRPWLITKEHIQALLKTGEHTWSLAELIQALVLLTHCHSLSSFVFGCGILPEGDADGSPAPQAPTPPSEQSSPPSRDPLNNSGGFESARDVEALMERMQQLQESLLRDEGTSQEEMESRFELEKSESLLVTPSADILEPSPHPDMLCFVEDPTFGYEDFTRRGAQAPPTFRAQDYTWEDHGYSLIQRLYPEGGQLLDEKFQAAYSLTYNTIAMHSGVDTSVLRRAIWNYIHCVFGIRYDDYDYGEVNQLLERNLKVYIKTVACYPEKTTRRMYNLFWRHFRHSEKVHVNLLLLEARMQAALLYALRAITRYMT
Experimental: Accordingly, we synthesized novel binding ligands incorporating these structural features. These compounds were tested for Sestrin2 binding using a thermal shift assay and for their ability to activate mTORC1 in leucine-starved Human Embryonic Kidney (HEK)-293T cells. These studies led to the identification of NV-5138 – a novel small molecule activator of mTORC1 signaling (Fig. 1a).
Full-length, codon-optimized human Sestrin2 was cloned into a pMAL6H -C5XT bacterial expression vector. Protein was purified onto a HisTrap FF crude column (GE Healthcare) followed by anion exchange chromatography then further purified via size-exclusion chromatography. Further details can be found in Supplementary Information.
Full-length, codon-optimized human Sestrin2 was cloned into a pMAL6H -C5XT bacterial expression vector such that Sestrin2 became N-terminally fused with a Tobacco Etch Virus nuclear-inclusion-a endopeptidase (TEV)–cleavable His6-MBP tag. This vector was transformed into Escherichia coli LOBSTR (DE3) cells (Kerafast) ^1. Cells were grown at 37 °C to 0.6 OD, then protein production was induced with 0.2 mM IPTG at 18 °C for 12–14 h. Cells were collected by centrifugation at 6,000g, resuspended in lysis buffer (50 mM Tris-HCl, pH 8.5, 400 mM NaCl, 5 mM MgCl2, 1 mM dithiothreitol (DTT), 0.2% CHAPS, 10% glycerol and 1 tablet of protease inhibitor tablets per 50 ml (Complete Inhibitor tablets from Roche w/o EDTA)), homogenized and sonicated. The lysate was cleared by centrifugation at 15,000g for 45 min. The soluble fraction (~250 ml) was loaded onto a HisTrap FF crude column (GE Healthcare) at 2 ml/min followed by washing with lysis buffer at 4 ml/min. After washing, the protein was eluted in lysis buffer containing 300 mM imidazole at 4 ml/min. Fractions corresponding to the Sestrin2 protein were identified via SDS-PAGE and pooled. The eluted Sestrin2 was then incubated with TEV protease and dialyzed overnight at 4 °C into 50 mM Tris-HCl, pH 8.5, 400 mM NaCl, 5 mM MgCl2, 1 mM dithiothreitol (DTT), 0.1% CHAPS, 10% glycerol. To separate the N-terminal tag from the cleaved Sesrin2, from cleaved sample was then re-applied to the HisTrap FF crude column and flow-through collected. The protein was then subjected to anion exchange chromatography on an 8ml Mono Q column (GE Healthcare) with a linear NaCl gradient and then further purified via size-exclusion chromatography on a Superdex S200 26/60 column (GE Healthcare) equilibrated in running buffer (50 mM Hepes pH 7.4, 200 mM NaCl, 1 mM DTT, 2.5 mM MgCl2, and 5% glycerol).

ΔTm at 1 µM (Sestrin2) [°C] | ΔTm at 10 µM (Sestrin2) [°C] | ΔTm at 100 µM (Sestrin2) [°C] | SMILES | effect on incorporation of 14C-leucine into precipitated proteins (HeLa cells) | effect on 14C-leucine incorporation at high doses (HeLa cells; high doses) | mTORC1 activation in kidney, heart, tibialis anterior muscle, testes, epididymal fat (mTORC1) | mTORC1 activation in liver (mTORC1) | mTORC1 activation in lung, spleen, gastrocnemius muscle, eye, thymus (mTORC1)
0.57 ± 0.22 | 3.27 ± 0.16 | 6.17 ± 0.18 | CC(C)(C[C@H](N)C(=O)O)C(F)F [NV-5138, (S)-2-amino-5,5-difluoro-4,4-dimethylpentanoic acid] | did not show any competition | appeared to increase | significant activation | trend | little to no activation
0.61 ± 0.59 | 3.64 ± 0.41 | 6.49 ± 0.2 | CC(C)C[C@H](N)C(=O)O [Leucine, L-leucine, reference compound] | blocked incorporation | – | significant activation | significant activation | little to no activation
